From ChEMBL document CHEMBL4699561, “Cytotoxic Germacranolides from the Whole Plant of Carpesium minus” (J Nat Prod, 2020)

Experiments:
A549 = test: Cytotoxicity against human A549 cells assessed as reduction in cell viability by MTT assay; type: functional, cell-based
MDA-MB-231 = test: Cytotoxicity against human MDA-MB-231 cells assessed as reduction in cell viability by MTT assay; type: functional, cell-based
HCT-116 [1] = test: Cytotoxicity against human HCT-116 cells assessed as reduction in cell viability by MTT assay; type: functional, cell-based
HCT-116 [2] = test: Induction of apoptosis in human HCT-116 cells assessed as viable cells at 8 uM after 24 hrs by Annexin V-FITC/propidium iodide staining based flow cytometric analysis (reference value: 87.8%); type: functional; details: read-out: Activity
HCT-116 [3] = test: Induction of apoptosis in human HCT-116 cells assessed as late apoptotic cells at 4 uM after 24 hrs by Annexin V-FITC/propidium iodide staining based flow cytometric analysis (reference value: 6.5%); type: functional
HCT-116 [4] = test: Induction of apoptosis in human HCT-116 cells assessed as early apoptotic cells at 16 uM after 24 hrs by Annexin V-FITC/propidium iodide staining based flow cytometric analysis (reference value: 5.3%); type: functional
HCT-116 [5] = test: Induction of apoptosis in human HCT-116 cells assessed as early apoptotic cells at 8 uM after 24 hrs by Annexin V-FITC/propidium iodide staining based flow cytometric analysis (reference value: 5.3%); type: functional
HCT-116 [6] = test: Induction of apoptosis in human HCT-116 cells assessed as necrotic cells at 8 uM after 24 hrs by Annexin V-FITC/propidium iodide staining based flow cytometric analysis (reference value: 0.4%); type: functional
HCT-116 [7] = test: Induction of apoptosis in human HCT-116 cells assessed as late apoptotic cells at 16 uM after 24 hrs by Annexin V-FITC/propidium iodide staining based flow cytometric analysis (reference value: 6.5%); type: functional
HCT-116 [8] = test: Induction of apoptosis in human HCT-116 cells assessed as apoptotic cells after 24 hrs by Annexin V-FITC/propidium iodide staining based flow cytometric analysis; type: functional, cell-based; details: dose microM 4-16, time 24.0 hrs
HCT-116 [9] = test: Induction of apoptosis in human HCT-116 cells assessed as increase in cleaved-PARP protein expression after 24 hrs by Western blot analysis; type: functional, cell-based; details: dose microM 4-16, time 24.0 hrs
HCT-116 [10] = test: Induction of apoptosis in human HCT-116 cells assessed as increase in cleaved-caspace-7 protein expression after 24 hrs by Western blot analysis; type: functional, cell-based; details: dose microM 4-16, time 24.0 hrs
HCT-116 [11] = test: Induction of apoptosis in human HCT-116 cells assessed as late apoptotic cells at 8 uM after 24 hrs by Annexin V-FITC/propidium iodide staining based flow cytometric analysis (reference value: 6.5%); type: functional
HCT-116 [12] = test: Induction of apoptosis in human HCT-116 cells assessed as viable cells at 16 uM after 24 hrs by Annexin V-FITC/propidium iodide staining based flow cytometric analysis (reference value: 87.8%); type: functional; details: read-out: Activity
HCT-116 [13] = test: Induction of apoptosis in human HCT-116 cells assessed as increase in cleaved-caspace-3 protein expression after 24 hrs by Western blot analysis; type: functional, cell-based; details: dose microM 4-16, time 24.0 hrs
HCT-116 [14] = test: Induction of apoptosis in human HCT-116 cells assessed as necrotic cells at 16 uM after 24 hrs by Annexin V-FITC/propidium iodide staining based flow cytometric analysis (reference value: 0.4%); type: functional
HCT-116 [15] = test: Induction of apoptosis in human HCT-116 cells assessed as necrotic cells at 4 uM after 24 hrs by Annexin V-FITC/propidium iodide staining based flow cytometric analysis (reference value: 0.4%); type: functional
HCT-116 [16] = test: Induction of apoptosis in human HCT-116 cells assessed as viable cells at 4 uM after 24 hrs by Annexin V-FITC/propidium iodide staining based flow cytometric analysis (reference value: 87.8%); type: functional; details: read-out: Activity
HCT-116 [17] = test: Induction of apoptosis in human HCT-116 cells assessed as early apoptotic cells at 4 uM after 24 hrs by Annexin V-FITC/propidium iodide staining based flow cytometric analysis (reference value: 5.3%); type: functional

| SMILES | IC50 (A549) | IC50 (MDA-MB-231) | IC50 (HCT-116 [1]) | also measured |
| --- | --- | --- | --- | --- |
| C=C1C(=O)O[C@@H]2[C@@H](OC(=O)/C(C)=C\C)[C@@](C)(O)CCC[C@@H](C)C(=O)C[C@@H]12 | 14.1 µM | 4.7 µM | 3.2 µM |  |
| C=C1C(=O)O[C@@H]2[C@@H](OC(=O)C(C)C)[C@@](C)(O)C[C@H]3C[C@@H](C)[C@@](O)(C[C@@H]12)O3 | > 50 µM | > 50 µM | 20.2 µM |  |
| C=C1C(=O)O[C@@H]2[C@@H](OC(=O)C(C)C)[C@@](C)(O)CCC[C@@H](C)C(=O)C[C@@H]12 | 26.6 µM | 11.6 µM | 8.5 µM |  |
| C=C1C(=O)O[C@@H]2[C@@H](OC(=O)[C@@H](C)CC)[C@@](C)(O)C[C@H]3C[C@@H](C)[C@@](O)(C[C@@H]12)O3 | 24.3 µM | 23.7 µM | 14 µM |  |
| C=C1C(=O)O[C@@H]2[C@@H](OC(=O)[C@H](C)CC)[C@@](C)(O)C[C@H]3C[C@@H](C)[C@@](O)(C[C@@H]12)O3 | 37.6 µM | 48.9 µM | 21.4 µM |  |
| C=C1C(=O)O[C@@H]2[C@@H](OC(=O)[C@H](C)CC)[C@@](C)(O)CCC[C@@H](C)C(=O)C[C@@H]12 | 24.7 µM | 10.6 µM | 5.3 µM |  |
| C=C1C(=O)O[C@@H]2[C@@H](OC(=O)[C@@H](C)CC)[C@@](C)(O)CCC[C@@H](C)C(=O)C[C@@H]12 | 31.9 µM | 14.6 µM | 6.7 µM |  |
| C=C1C(=O)O[C@@H]2[C@@H](OC(=O)CC(C)C)[C@@](C)(O)C[C@H]3C[C@@H](C)[C@@](O)(C[C@@H]12)O3 | 24.5 µM | 27.9 µM | 17.2 µM |  |
| C=C1C(=O)O[C@@H]2[C@@H](OC(=O)/C(C)=C\C)[C@@](C)(O)C[C@H]3C[C@@H](C)[C@@](O)(C[C@@H]12)O3 | 17.3 µM | 23.4 µM | 17.8 µM |  |
| C=C1C(=O)O[C@@H]2[C@@H](OC(=O)CC(C)C)[C@@](C)(O)CCC[C@@H](C)C(=O)C[C@@H]12 | 8.4 µM | 6.1 µM | 3.7 µM | viability at 8 µM (HCT-116 [2]): 83.8%; Activity (HCT-116 [3]): 7.3%; Activity (HCT-116 [4]): 10.5%; Activity (HCT-116 [5]): 7.3%; Activity (HCT-116 [6]): 0.6%; Activity (HCT-116 [7]): 15%; Activity (HCT-116 [8]): Dose-dependent effect; Activity (HCT-116 [9]): Dose-dependent effect; Activity (HCT-116 [10]): Dose-dependent effect; Activity (HCT-116 [11]): 8.3%; viability at 16 µM (HCT-116 [12]): 73.9%; Activity (HCT-116 [13]): Dose-dependent effect; Activity (HCT-116 [14]): 0.6%; Activity (HCT-116 [15]): 0.4%; viability at 4 µM (HCT-116 [16]): 87.1%; Activity (HCT-116 [17]): 5.2% |
